Data: PubChem BioAssay AID2060625 (Molecular Pharmacology Branch, DTP, NCI, 2025)

Test system: 186277-243-T-J2-PDC spheroids with HUVEC/MSC, viability
Experiment: Anticancer human tumor 186277-243-T-J2-PDC patient-derived colon adenocarcinoma cell line growth inhibition [CLK]
Conditions: for IC50: curve of first compound; for viability, T/C: stronger effect = lower value
Method in brief: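 Multi-cell-type spheroids combined patient-derived tumor cells with HUVEC endothelial cells and human mesenchymal stem cells. Paired agents were dosed in half-log steps down from about clinical Cmax, or from 10 microM where Cmax was unknown.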

[1] = second compound 0.0316 µM, first compound 0.00949 µM
[2] = second compound 0.0316 µM, first compound 0.03 µM
[3] = second compound 0.0316 µM, first compound 0.0949 µM
[4] = second compound 0.0316 µM, first compound 0.3 µM
[5] = second compound 0.1 µM, first compound 0.00949 µM
[6] = second compound 0.1 µM, first compound 0.03 µM
[7] = second compound 0.1 µM, first compound 0.0949 µM
[8] = second compound 0.1 µM, first compound 0.3 µM
[9] = second compound 0.316 µM, first compound 0.00949 µM
[10] = second compound 0.316 µM, first compound 0.03 µM
[11] = second compound 0.316 µM, first compound 0.0949 µM
[12] = second compound 0.316 µM, first compound 0.3 µM
[13] = second compound 1 µM, first compound 0.00949 µM
[14] = second compound 1 µM, first compound 0.03 µM
[15] = second compound 1 µM, first compound 0.0949 µM
[16] = second compound 1 µM, first compound 0.3 µM
[17] = second compound 3.16 µM, first compound 0.00949 µM
[18] = second compound 3.16 µM, first compound 0.03 µM
[19] = second compound 3.16 µM, first compound 0.0949 µM
[20] = second compound 3.16 µM, first compound 0.3 µM
[21] = second compound 10 µM, first compound 0.00949 µM
[22] = second compound 10 µM, first compound 0.03 µM
[23] = second compound 10 µM, first compound 0.0949 µM
[24] = second compound 10 µM, first compound 0.3 µM
[25] = second compound 0.0316 µM, first compound 0.0316 µM
[26] = second compound 0.0316 µM, first compound 0.1 µM
[27] = second compound 0.0316 µM, first compound 0.316 µM
[28] = second compound 0.0316 µM, first compound 1 µM
[29] = second compound 0.0316 µM, first compound 3.16 µM
[30] = second compound 0.0316 µM, first compound 10 µM
[31] = second compound 0.1 µM, first compound 0.0316 µM
[32] = second compound 0.1 µM, first compound 0.1 µM
[33] = second compound 0.1 µM, first compound 0.316 µM
[34] = second compound 0.1 µM, first compound 1 µM
[35] = second compound 0.1 µM, first compound 3.16 µM
[36] = second compound 0.1 µM, first compound 10 µM
[37] = second compound 0.316 µM, first compound 0.0316 µM
[38] = second compound 0.316 µM, first compound 0.1 µM
[39] = second compound 0.316 µM, first compound 0.316 µM
[40] = second compound 0.316 µM, first compound 1 µM
[41] = second compound 0.316 µM, first compound 3.16 µM
[42] = second compound 0.316 µM, first compound 10 µM
[43] = second compound 1 µM, first compound 0.0316 µM
[44] = second compound 1 µM, first compound 0.1 µM
[45] = second compound 1 µM, first compound 0.316 µM
[46] = second compound 1 µM, first compound 1 µM
[47] = second compound 1 µM, first compound 3.16 µM
[48] = second compound 1 µM, first compound 10 µM
[49] = second compound 3.16 µM, first compound 0.0316 µM
[50] = second compound 3.16 µM, first compound 0.1 µM
[51] = second compound 3.16 µM, first compound 0.316 µM
[52] = second compound 3.16 µM, first compound 1 µM
[53] = second compound 3.16 µM, first compound 3.16 µM
[54] = second compound 3.16 µM, first compound 10 µM
[55] = second compound 10 µM, first compound 0.0316 µM
[56] = second compound 10 µM, first compound 0.1 µM
[57] = second compound 10 µM, first compound 0.316 µM
[58] = second compound 10 µM, first compound 1 µM
[59] = second compound 10 µM, first compound 3.16 µM
[60] = second compound 10 µM, first compound 10 µM
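Note: compound exposure lasted seven days before readout.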
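Throughout, for viability, T/C: 100% = DMSO vehicle control wells.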

CC(C)CC(NC(=O)C(Cc1ccccc1)NC(=O)c1cnccn1)B(O)O (stereo not drawn) + CN1CCN(c2cc(C(=O)Nc3cc4cc(-c5cnn(C)c5)ccc4cn3)ccn2)CC1
IC50 (second compound 0.0316 µM): 4.52 nM | IC50 (second compound 0.1 µM): 2.27 nM | IC50 (second compound 0.316 µM): < 0.949 nM | IC50 (second compound 1 µM): < 0.949 nM | IC50 (second compound 3.16 µM): < 0.949 nM | IC50 (second compound 10 µM): < 0.949 nM | viability, T/C (second compound 0.0316 µM, first compound 0.000949 µM): 93% | viability, T/C (second compound 0.0316 µM, first compound 0.003 µM): 77.2% | viability, T/C [1]: 0.25% | viability, T/C [2]: 0.9% | viability, T/C [3]: 0.78% | viability, T/C [4]: 1.15% | viability, T/C (second compound 0.1 µM, first compound 0.000949 µM): 88.1% | viability, T/C (second compound 0.1 µM, first compound 0.003 µM): 37.7% | viability, T/C [5]: 1.84% | viability, T/C [6]: 0.31% | viability, T/C [7]: 1.92% | viability, T/C [8]: 0.17% | viability, T/C (second compound 0.316 µM, first compound 0.000949 µM): 26.1% | viability, T/C (second compound 0.316 µM, first compound 0.003 µM): 1.14% | viability, T/C [9]: 1.35% | viability, T/C [10]: 1.4% | viability, T/C [11]: 1.62% | viability, T/C [12]: 0.34% | viability, T/C (second compound 1 µM, first compound 0.000949 µM): 0.5% | viability, T/C (second compound 1 µM, first compound 0.003 µM): 0.4% | viability, T/C [13]: 1.57% | viability, T/C [14]: 0.8% | viability, T/C [15]: 1.78% | viability, T/C [16]: 0.17% | viability, T/C (second compound 3.16 µM, first compound 0.000949 µM): 2.83% | viability, T/C (second compound 3.16 µM, first compound 0.003 µM): 0.72% | viability, T/C [17]: 0.33% | viability, T/C [18]: 1.62% | viability, T/C [19]: 1.24% | viability, T/C [20]: 0.17% | viability, T/C (second compound 10 µM, first compound 0.000949 µM): 1.17% | viability, T/C (second compound 10 µM, first compound 0.003 µM): 0.46% | viability, T/C [21]: 0.27% | viability, T/C [22]: 1.87% | viability, T/C [23]: 1.18% | viability, T/C [24]: 0.16%

CC1(C)CCC(CN2CCN(c3ccc(C(=O)NS(=O)(=O)c4ccc(NCC5CCOCC5)c([N+](=O)[O-])c4)c(Oc4cnc5[nH]ccc5c4)c3)CC2)=C(c2ccc(Cl)cc2)C1 + CN1CCN(c2cc(C(=O)Nc3cc4cc(-c5cnn(C)c5)ccc4cn3)ccn2)CC1
IC50 (second compound 0.0316 µM): 5780 nM | IC50 (second compound 0.1 µM): 5350 nM | IC50 (second compound 0.316 µM): < 31.6 nM | IC50 (second compound 1 µM): < 31.6 nM | IC50 (second compound 3.16 µM): < 31.6 nM | IC50 (second compound 10 µM): < 31.6 nM | viability, T/C [25]: 92.5% | viability, T/C [26]: 93.2% | viability, T/C [27]: 94.6% | viability, T/C [28]: 92.1% | viability, T/C [29]: 104% | viability, T/C [30]: 8.6% | viability, T/C [31]: 82.4% | viability, T/C [32]: 76.3% | viability, T/C [33]: 87.6% | viability, T/C [34]: 94.5% | viability, T/C [35]: 101% | viability, T/C [36]: 4.42% | viability, T/C [37]: 30.1% | viability, T/C [38]: 32.8% | viability, T/C [39]: 23.6% | viability, T/C [40]: 30.9% | viability, T/C [41]: 25.3% | viability, T/C [42]: 2.48% | viability, T/C [43]: 0.62% | viability, T/C [44]: 0.92% | viability, T/C [45]: 0.31% | viability, T/C [46]: 0.75% | viability, T/C [47]: 1.8% | viability, T/C [48]: 0.48% | viability, T/C [49]: 1.95% | viability, T/C [50]: 0.91% | viability, T/C [51]: 1.71% | viability, T/C [52]: 1.07% | viability, T/C [53]: 1.36% | viability, T/C [54]: 0.41% | viability, T/C [55]: 0.95% | viability, T/C [56]: 1.04% | viability, T/C [57]: 1.34% | viability, T/C [58]: 0.91% | viability, T/C [59]: 0.55% | viability, T/C [60]: 0.2%

CC1COCCN1c1cc(C2(S(C)(=N)=O)CC2)nc(-c2ccnc3[nH]ccc23)n1 (stereo not drawn) + CN1CCN(c2cc(C(=O)Nc3cc4cc(-c5cnn(C)c5)ccc4cn3)ccn2)CC1
IC50 (second compound 0.0316 µM): 2250 nM | IC50 (second compound 0.1 µM): 1320 nM | IC50 (second compound 0.316 µM): < 31.6 nM | IC50 (second compound 1 µM): < 31.6 nM | IC50 (second compound 3.16 µM): < 31.6 nM | IC50 (second compound 10 µM): < 31.6 nM | viability, T/C [25]: 93.4% | viability, T/C [26]: 86.8% | viability, T/C [27]: 105% | viability, T/C [28]: 95% | viability, T/C [29]: 31.2% | viability, T/C [30]: 11.2% | viability, T/C [31]: 76.9% | viability, T/C [32]: 80.5% | viability, T/C [33]: 74.2% | viability, T/C [34]: 59.1% | viability, T/C [35]: 22.6% | viability, T/C [36]: 10.5% | viability, T/C [37]: 23.9% | viability, T/C [38]: 25.9% | viability, T/C [39]: 24.3% | viability, T/C [40]: 24.7% | viability, T/C [41]: 19.7% | viability, T/C [42]: 12.6% | viability, T/C [43]: 0.89% | viability, T/C [44]: 0.78% | viability, T/C [45]: 0.7% | viability, T/C [46]: 1.08% | viability, T/C [47]: 1.18% | viability, T/C [48]: 1.33% | viability, T/C [49]: 1.91% | viability, T/C [50]: 1.72% | viability, T/C [51]: 1.28% | viability, T/C [52]: 1.01% | viability, T/C [53]: 1.48% | viability, T/C [54]: 2.05% | viability, T/C [55]: 0.93% | viability, T/C [56]: 0.87% | viability, T/C [57]: 1.19% | viability, T/C [58]: 1.26% | viability, T/C [59]: 1.01% | viability, T/C [60]: 1.14%

NC(=O)C(=Cn1cnc(-c2cc(C(F)(F)F)cc(C(F)(F)F)c2)n1)c1cncnc1 + CN1CCN(c2cc(C(=O)Nc3cc4cc(-c5cnn(C)c5)ccc4cn3)ccn2)CC1
IC50 (second compound 0.0316 µM): 127 nM | IC50 (second compound 0.1 µM): 39 nM | IC50 (second compound 0.316 µM): < 9.49 nM | IC50 (second compound 1 µM): < 9.49 nM | IC50 (second compound 3.16 µM): < 9.49 nM | IC50 (second compound 10 µM): < 9.49 nM | viability, T/C [1]: 98.3% | viability, T/C [2]: 83.4% | viability, T/C [3]: 65.4% | viability, T/C [4]: 5.69% | viability, T/C (second compound 0.0316 µM, first compound 0.949 µM): 1.85% | viability, T/C (second compound 0.0316 µM, first compound 3 µM): 2.91% | viability, T/C [5]: 61.6% | viability, T/C [6]: 60.9% | viability, T/C [7]: 13.1% | viability, T/C [8]: 1.94% | viability, T/C (second compound 0.1 µM, first compound 0.949 µM): 0.71% | viability, T/C (second compound 0.1 µM, first compound 3 µM): 1.36% | viability, T/C [9]: 9.76% | viability, T/C [10]: 4.11% | viability, T/C [11]: 0.34% | viability, T/C [12]: 0.6% | viability, T/C (second compound 0.316 µM, first compound 0.949 µM): 0.58% | viability, T/C (second compound 0.316 µM, first compound 3 µM): 0.92% | viability, T/C [13]: 1% | viability, T/C [14]: 1.1% | viability, T/C [15]: 0.81% | viability, T/C [16]: 0.47% | viability, T/C (second compound 1 µM, first compound 0.949 µM): 0.34% | viability, T/C (second compound 1 µM, first compound 3 µM): 3.14% | viability, T/C [17]: 1.66% | viability, T/C [18]: 1.29% | viability, T/C [19]: 1.77% | viability, T/C [20]: 1.67% | viability, T/C (second compound 3.16 µM, first compound 0.949 µM): 1.12% | viability, T/C (second compound 3.16 µM, first compound 3 µM): 1.92% | viability, T/C [21]: 1.29% | viability, T/C [22]: 1.77% | viability, T/C [23]: 1.3% | viability, T/C [24]: 0.74% | viability, T/C (second compound 10 µM, first compound 0.949 µM): 1.71% | viability, T/C (second compound 10 µM, first compound 3 µM): 1.04%
